Experimental data from ChEMBL document CHEMBL1201862, “PubChem BioAssay data set” (2004).

Assays:
Streptococcus = test: Luminescence Microorganism-Based Dose Response Follow up to Identify Compounds Cytotoxic to Streptococcus. [Related pubchem assays: 1677 (Project Summary), 1915, 1914, 1902 (Retest at Dose), 1900 (Counter Screen), 1662 (Primary HTS)]; format: functional, organism-based
Cytochrome P450 2D6 = Cytochrome P450 2D6 (Homo sapiens, UniProt P10635);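 note: CYP2D6 member of a cytochrome P450 panel assay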
Sequence of Cytochrome P450 2D6 (P10635 whole entry): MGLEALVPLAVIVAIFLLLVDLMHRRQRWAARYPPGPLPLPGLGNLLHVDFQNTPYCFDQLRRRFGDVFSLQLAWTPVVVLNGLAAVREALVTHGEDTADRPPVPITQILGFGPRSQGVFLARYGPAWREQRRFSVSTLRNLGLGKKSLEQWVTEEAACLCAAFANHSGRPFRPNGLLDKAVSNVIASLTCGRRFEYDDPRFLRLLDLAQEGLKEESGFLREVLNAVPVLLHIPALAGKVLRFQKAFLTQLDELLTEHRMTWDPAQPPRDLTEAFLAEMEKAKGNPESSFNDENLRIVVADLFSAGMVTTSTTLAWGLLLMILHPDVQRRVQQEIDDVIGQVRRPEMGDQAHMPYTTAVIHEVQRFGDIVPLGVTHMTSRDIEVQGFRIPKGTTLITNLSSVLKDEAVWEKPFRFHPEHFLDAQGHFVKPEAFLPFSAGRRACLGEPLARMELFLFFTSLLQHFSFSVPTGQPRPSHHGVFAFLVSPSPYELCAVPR

Cytochrome P450 2C9 = Cytochrome P450 2C9 (Homo sapiens, UniProt P11712)
Sequence of Cytochrome P450 2C9 (P11712 whole entry): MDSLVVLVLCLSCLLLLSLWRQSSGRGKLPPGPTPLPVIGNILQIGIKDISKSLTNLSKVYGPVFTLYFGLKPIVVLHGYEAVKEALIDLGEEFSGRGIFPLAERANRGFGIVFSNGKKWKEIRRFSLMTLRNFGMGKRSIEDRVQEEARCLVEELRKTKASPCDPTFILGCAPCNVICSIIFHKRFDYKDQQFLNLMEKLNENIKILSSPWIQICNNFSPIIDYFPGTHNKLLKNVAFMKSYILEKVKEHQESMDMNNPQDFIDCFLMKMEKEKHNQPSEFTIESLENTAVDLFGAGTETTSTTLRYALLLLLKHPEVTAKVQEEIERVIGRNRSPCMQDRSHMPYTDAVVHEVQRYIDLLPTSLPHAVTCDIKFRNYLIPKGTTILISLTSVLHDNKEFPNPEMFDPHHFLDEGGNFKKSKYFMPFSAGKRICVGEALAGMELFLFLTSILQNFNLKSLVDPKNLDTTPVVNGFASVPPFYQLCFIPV

[1] = target: T1, Alkaline phosphatase, tissue-nonspecific isozyme (Homo sapiens, UniProt P05186)
T1 sequence (P05186 whole entry): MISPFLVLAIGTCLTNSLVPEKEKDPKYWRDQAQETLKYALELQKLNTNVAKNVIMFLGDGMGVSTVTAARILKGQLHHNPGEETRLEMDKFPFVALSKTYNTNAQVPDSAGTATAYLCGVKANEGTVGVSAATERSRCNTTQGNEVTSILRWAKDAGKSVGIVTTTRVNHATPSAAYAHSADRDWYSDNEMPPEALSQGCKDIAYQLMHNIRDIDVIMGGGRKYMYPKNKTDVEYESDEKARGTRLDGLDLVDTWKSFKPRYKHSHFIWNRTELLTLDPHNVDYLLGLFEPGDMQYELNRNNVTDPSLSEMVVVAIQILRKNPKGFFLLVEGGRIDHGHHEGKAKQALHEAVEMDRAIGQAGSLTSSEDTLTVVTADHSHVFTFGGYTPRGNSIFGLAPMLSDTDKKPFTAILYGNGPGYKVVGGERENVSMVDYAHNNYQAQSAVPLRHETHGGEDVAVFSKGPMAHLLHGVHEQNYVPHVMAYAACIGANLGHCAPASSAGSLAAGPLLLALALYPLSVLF

AC50 (Cytochrome P450 2D6)	AC50 (Cytochrome P450 2C9)	EC50 [1]	Structure (SMILES)	EC50 (Streptococcus)
			COc1cccc(C(=O)n2c3ccccc3c3ccccc32)c1	> 500 µM (not active)
14.1 µM (inconclusive)	inconclusive	> 100 µM (not active)	CCN=C(S)NNC(=O)CCn1c2ccccc2c2ccccc21	
